Measurements published in ChEMBL document CHEMBL1146548, “New anthracene derivatives from Coussarea macrophylla” (J Nat Prod, 2003).

Tests used:
Staphylococcus aureus = experiment: Antibacterial activity against Staphylococcus aureus at 19 ug/disk by standard filter disk assay; format: functional; settings: read-out: IZ
Artemia salina = experiment: Toxicity against Artemia salina; format: organism-based; settings: in vivo

Question: `COc1c(C=O)cc(OC)c2c(OC)c3ccccc3cc12` was tested. Which zone of inhibition at 19 µg/disc (Staphylococcus aureus) did it give?
Answer: The zone of inhibition at 19 µg/disc was 12 mm.

Question: What about the LC50 (Artemia salina) of the same molecule?
Answer: Its LC50 is > 280 ppm.

Question: Which LC50 (Artemia salina) does the source give for `COCc1c(OC)cc2c(c1OC)C(=O)c1ccccc1C2=O` here?
Answer: The LC50 was > 280 ppm.
